Source: ChEMBL document CHEMBL4190378, “Synthesis and evaluation of new 2-chloro-4-aminopyrimidine and 2,6-dimethyl-4-aminopyrimidine derivatives as tubulin polymerization inhibitors” (Bioorg Med Chem Lett, 2018)
pIC50: −log10 of the molar value. The source made the active and inactive calls. The calls are words filed in the database; no cut-off is given here.

Assays:
A549 = test: Antiproliferative activity against human A549 cells incubated for 48 hrs by MTT assay; type: functional, cell-based; conditions: A549, 48 h
HeLa [1] = test: Induction of apoptosis in human HeLa cells assessed as early apoptotic cells level at 100 nM incubated for 48 hrs by Annexin-V/FITC and propidium iodide staining based flow cytometry (reference value: 0.16%); type: functional
HeLa [2] = test: Induction of mitochondrial transmembrane potential loss in human HeLa cells assessed as JC1 dye monomers level at 100 nM incubated for 24 hrs by JC1 staining based flow cytometry (reference value: 4.12%); type: functional
HeLa [3] = test: Induction of mitochondrial transmembrane potential loss in human HeLa cells assessed as JC1 dye aggregates level at 50 nM incubated for 24 hrs by JC1 staining based flow cytometry (reference value: 95.85%); type: functional
HeLa [4] = test: Induction of cell cycle arrest in human HeLa cells assessed as induction of disappearance of G2/M phase at 500 nM incubated for 48 hrs by propidium iodide staining based flow cytometry; type: functional
HeLa [5] = test: Induction of apoptosis in human HeLa cells assessed as necrotic cells level at 100 nM incubated for 72 hrs by Annexin-V/FITC and propidium iodide staining based flow cytometry (reference value: 0.03%); type: functional
HeLa [6] = test: Induction of mitochondrial transmembrane potential loss in human HeLa cells at 500 nM incubated for 24 hrs by JC1 staining based fluorescence microscopy; type: functional, cell-based
HeLa [7] = test: Induction of apoptosis in human HeLa cells assessed as early apoptotic cells level at 50 nM incubated for 72 hrs by Annexin-V/FITC and propidium iodide staining based flow cytometry (reference value: 0.16%); type: functional
HeLa [8] = test: Induction of cell cycle arrest in human HeLa cells assessed as accumulation at subG1 phase at 100 nM incubated for 24 hrs by propidium iodide staining based flow cytometry; type: functional
HeLa [9] = test: Induction of apoptosis in human HeLa cells assessed as necrotic cells level at 500 nM incubated for 48 hrs by Annexin-V/FITC and propidium iodide staining based flow cytometry (reference value: 0.03%); type: functional
HeLa [10] = test: Induction of mitochondrial transmembrane potential loss in human HeLa cells assessed as JC1 dye monomers level at 50 nM incubated for 24 hrs by JC1 staining based flow cytometry (reference value: 4.12%); type: functional
HeLa [11] = test: Induction of apoptosis in human HeLa cells assessed as viable cells level at 500 nM incubated for 72 hrs by Annexin-V/FITC and propidium iodide staining based flow cytometry (reference value: 99.72%); type: functional
HeLa [12] = test: Induction of apoptosis in human HeLa cells assessed as late apoptotic cells level at 100 nM incubated for 48 hrs by Annexin-V/FITC and propidium iodide staining based flow cytometry (reference value: 0.02%); type: functional
[13] = Inhibition of porcine brain tubulin polymerization measured every 60 secs for 90 mins by DAPI dye based fluorescence assay; design: species or system Sus scrofa
HeLa [14] = test: Induction of apoptosis in human HeLa cells assessed as early apoptotic cells level at 500 nM incubated for 48 hrs by Annexin-V/FITC and propidium iodide staining based flow cytometry (reference value: 0.16%); type: functional

## COc1ccc(N(C)c2cc(C)nc(C)n2)cc1O
A549
  pIC50: 6.95
HeLa [1]
  Activity: 23.16%
HeLa [2]
  Activity: 28.64%
HeLa [3]
  Activity: 88.35%
HeLa [4]
  Activity: Active
HeLa [5]
  Activity: 2.08%
HeLa [6]
  Activity: Active
HeLa [7]
  Activity: 9.78%
HeLa [8]
  Activity: Active
HeLa [9]
  Activity: 0.29%
HeLa [10]
  Activity: 11.47%
HeLa [11]
  Activity: 11.77%
HeLa [12]
  Activity: 0.05%
[13]
  pIC50: 5.24
HeLa [14]
  Activity: 69.81%
